The values that follow come from patent US20260364124A1, “ANTI-C. DIFFICILE SMALL MOLECULE METABOLITES FROM DIET AND GUT MICROBIOME” (The Children's Medical Center Corporation, priority 2023, published 2026).

Entries after “also recorded” stand apart in the source; their conditions may differ.

The test system of one assay is C. difficile M7404. Put plainly: In vitro polydatin bioactivation and C. difficile antagonism by conditioned (spent) media of B. uniformis WT. Format: cell-based, Clostridioides difficile. The settings on record: polydatin 500 μM, 1/2-diluted, C. difficile M7404 growth 12 h (FIG. 5A). How it is done: FIGS. 5A and 5B show microbiome-mediated polyphenol aglycone liberation. […] Step 2: Spent media was filter-sterilized. Step 3: C. difficile was grown in spent media from either vehicle or polydatin (top). […]
The experimental media consisted of a modified YCFA media (mYCFA; casitone (2.5 g/L), yeast extract (0.625 g/L), cysteine (0.5 g/L), magnesium sulfate heptahydrate (f.c. 365 μM), calcium chloride dihydrate (f.c. 610 μM), sodium bicarbonate (4 g/L), dipotassium phosphate (0.45 g/L), monopotassium phosphate (0.45 g/L), sodium chloride (0.9 g/L), sodium acetate (2.71 g/L), Hemin (50 mg/L), Vitamin K1 (0.25 mg/L), ferrous sulfate (4 μg/mL), and ATCC vitamin mix (1% v/v)) supplemented with glucose (15 mM, Sigma) plus ½-diluted B. uniformis WT or AgshD conditioned media from growth with or without polydatin. C. difficile growth was monitored by measuring the optical density at 600 nm (OD600) of each culture in a 384 well plate with an Epoch2 spectrophotometer (BioTek Instruments) for 12 hours.

A further assay deals with C. difficile isolates. Put plainly: Phytochemical microbial killing assay, diverse C. difficile isolates. Format: cell-based, Clostridioides difficile. The method, then:
FIG. 3B provides a heatmap of growth of 20 Clostridioides difficile isolates in the absence of presence of the polyphenolic glycoside polydatin or the Bacteroides liberated aglycone resveratrol. […] Growth induction or inhibition is measured as the ratio of growth in media (AUC) supplemented with glucose and 150 μM polydatin or resveratrol versus growth in media (AUC) supplemented with glucose and vehicle. Value>1 is representative of enhanced growth in compound and value <1 is representative of inhibition of growth in compound.
Bacterial isolates were grown in vitro in media plus compound. Killing was measured by bacterial culture optical density (proxy for amount of bacteria in a culture).
Phytochemical microbial killing assays: All gut pathogen isolates were grown on brain-heart-infusion supplemented with hemin (50 mg/L) and vitamin K1 (0.25 mg/L) (BHIS) agar plates or in basal media (BSG; proteose peptone (20 g/L), yeast (5 g/L), NaCl (5 g/L), glucose (5 g/L), potassium phosphate dibasic (5 g/L), cysteine (0.5 g/L), hemin (50 mg/L), and vitamin K1 (0.25 mg/L). Isolates were recovered on and grown in pre-reduced media in a Coy anaerobic chamber (Coy Labs). To determine the fitness effects of phloridzin hydrate (TCI), phloretin (TCI), polydatin (TCI), and resveratrol (TCI) on enteric pathogen fitness, each pathogen isolate was recovered on a BHIS agar plate and incubated anaerobically at 37 °C for 48 h. A starter culture (1 mL) of BSG was inoculated with C. difficile and grown for 15 h. This starter culture was then used to inoculate a BSG sub-culture (1 mL) at a final dilution of 1:10. This sub-culture was grown for 3 h to an OD600~0.5 before being used to inoculate experimental cultures at a final dilution of 1:50. The experimental media consisted of a modified YCFA media (mYCFA; casitone (2.5 g/L), yeast extract (0.625 g/L), cysteine (0.5 g/L), magnesium sulfate heptahydrate (f.c. 365 μM), calcium chloride dihydrate (f.c. 610 μM), sodium bicarbonate (4 g/L), dipotassium phosphate (0.45 g/L), monopotassium phosphate (0.45 g/L), sodium chloride (0.9 g/L), sodium acetate (2.71 g/L), Hemin (50 mg/L), Vitamin K1 (0.25 mg/L), ferrous sulfate (4 μg/mL), ATCC vitamin mix (1% v/v)) supplemented with glucose (15 mM, Sigma) plus each compound (150 μM) or glucose (15 mM, Sigma) plus DMSO (0.15%, Sigma). Bacterial growth was monitored by measuring the optical density at 600 nm (OD600) of each culture in a 384 well plate with an Epoch2 spectrophotometer (BioTek Instruments) and MicroPlate stacker (Agilent BioTek) for 24 hours.

As to `OC[C@H]1O[C@@H](Oc2cc(O)cc(/C=C/c3ccc(O)cc3)c2)[C@H](O)[C@@H](O)[C@@H]1O` [polydatin], the “anti-C. difficile activity of conditioned media from B. uniformis WT grown with polydatin” value in the assay on C. difficile M7404 is listed as “inhibited the growth of Clostridioides difficile in vitro; also recorded: generated potent anti-C.difficile activity”. The “growth inhibition of Clostridioides difficile” value in the assay on C. difficile isolates (150 μM, 20 C. difficile isolates, growth ratio (AUC) vs vehicle (FIG. 3B)) is recorded as “did not; also recorded: but not its parent glycoside polydatin”. Further, the “killing / growth inhibition of diverse C. difficile isolates” value in the assay on C. difficile isolates (in vitro, media plus compound, culture optical density (FIG. 4)) is reported as “did not”.
